# Where “and” joins values, the source holds several entries; their conditions need not be identical. Equal entries are not always repeated. Where two headings read alike, the source gives them in different places.
# Legend:
# [1] = Figure 1; cited from earlier work
# [2] = Population pharmacokinetic (popPK) model of plasma concentrations in adult patients (OpTAT study)
# From the text: Data were collected during the OpTAT study. […] Blood samples were collected from patients during their regular medical visits, with a maximum of eight samples taken per patient.
# The digital monitor allowed us to provide accurate information on treatment implementation (i.e., the extent to which the patient’s dosing history is in line with the prescription—the correct dosing regimen, at the correct time and in the right condition) and temporary or long-term discontinuation of treatment (i.e., when the patient stops taking the treatment prematurely). For the remaining patients, dosing history was reconstructed based on information from the medical consultation notes, assuming steady-state condition if no information was available. Patient demographic and clinical data were extracted from medical records. For all clinical and laboratory data (e.g., body weight, hepatic or renal function), the closest measurement to the blood sample was used. If no measurement was taken within 10 days before or after the sample, then it was considered a missing value. Creatinine clearance (CrCL) was estimated using the Cockcroft–Gault formula [43]. Fat-free mass (FFM) was calculated using the following formula [44]:(1) FFMkg=BW×1−BFPbmi/100 with BW denoting bodyweight in kg and BFPbmi denoting body fat percentage, calculated using the following formula:(2) BFPbmi%=1.20×BMI+0.23×AGE−10.8×SEX−5.4 with BMI representing body mass index, in kg/m^2. SEX = 0 if women and 1 if men and AGE is provided in years.
# The development of the population pharmacokinetic (popPK) model was performed using nonlinear mixed-effect modelling (Nonmem, ICON, Dublin, Ireland, version 7.4.3) and Pearl speaks Nonmem (PsN, version 4.8.0). Pirana (Certara, Radnor, PA, USA, version 2.9.6) was used for the management of runs, R (version 4.0.2), for graphical and statistical analyses.
# A classical stepwise procedure was used to build the model. […] Inter-individual variability (IIV) was successively incorporated into each PK parameter. Different error models, including additive, proportional, and combined error models, were also assessed. Different values retrieved from the literature of absorption rate constants (ka), ranging from 0.4 to 2 h^−1, were evaluated due to insufficient data being collected during the absorption phase. For each patient, the time required to reach maximum concentration (Tmax) was estimated.
# Biologically relevant covariates were introduced into the model through a forward/backward insertion/deletion method. Covariates tested were sex, body weight, body mass index (BMI), body surface area (BSA), age, FFM, CrCL, urea, total bilirubin, alkaline phosphatase (PAL), aspartate aminotransferase (ASAT), alanine aminotransferase (ALAT), concomitant administration of dabrafenib, and food intake. Initially, a univariate analysis was conducted, during which covariates were added one by one to the model. Continuous covariates were centred and normalized to the population median and were added to the model using either linear or allometric relationships, while categorical covariates followed a linear relationship. Missing values were assigned the population median. Subsequently, a multivariate analysis was performed of the identified significant covariates to develop the comprehensive model. Finally, a reductive analysis was performed to retain only the most significant covariates.
# The assumption of steady state for patients without adherence information may have biased the analysis by interpreting low levels as high clearances resulting from missed doses rather than from a covariate effect. To verify this, a sensitivity analysis was conducted of the 11 patients with full adherence information. We assumed that if the significant covariate–parameter relationship persisted, its influence on the pharmacokinetic parameter would be confirmed, whereas, if not, this influence might have been confounded by other factors, including suboptimal adherence.
# [3] = design: method as in PMID 32283865; conditions: fixed to a literature value; cited from earlier work
# [4] = cited from earlier work
# [5] = cited from earlier work; remark: listed apart in the source
# [6] = cited from earlier work; remark: listed apart in the source
# [7] = test system: cytochrome P (CYP) enzymes; design: method as in earlier work; conditions: cited from earlier work
# [8] = bootstrap performed on 2000 runs
smiles,measurement,setting,value
CC(=O)Nc1cccc(-n2c(=O)n(C3CC3)c(=O)c3c(Nc4ccc(I)cc4F)n(C)c(=O)c(C)c32)c1 [trametinib],Most frequent adverse events: Abdominal pain,[1],17%
same,Most frequent adverse events: Arthralgia,[1],26%
same,Most frequent adverse events: Asthenia,[1],15%
same,Most frequent adverse events: Chills,[1],33%
same,Most frequent adverse events: Constipation,[1],13%
same,Most frequent adverse events: Coughing,[1],20%
same,Most frequent adverse events: Cutaneous dryness,[1],13%
same,Most frequent adverse events: Diarrhea,[1],32%
same,Most frequent adverse events: Erythema,[1],10%
same,Most frequent adverse events: Fatigue,[1],38%
same,Most frequent adverse events: Flu infection,[1],11%
same,Most frequent adverse events: Haemorrhages,[1],19%
same,Most frequent adverse events: Headache,[1],33%
same,Most frequent adverse events: Hypertension,[1],19%
same,Most frequent adverse events: Increase in ALAT,[1],14%
same,Most frequent adverse events: Increase in ASAT,[1],13%
same,Most frequent adverse events: Loss of appetite,[1],14%
same,Most frequent adverse events: Muscle cramps,[1],10%
same,Most frequent adverse events: Myalgia,[1],15%
same,Most frequent adverse events: Nausea,[1],38%
same,Most frequent adverse events: Pain in the extremities,[1],12%
same,Most frequent adverse events: Peripheral oedema,[1],16%
same,Most frequent adverse events: Pruritus,[1],10%
same,Most frequent adverse events: Pyrexia,[1],58%
same,Most frequent adverse events: Rash,[1],24%
same,Most frequent adverse events: Rhinopharyngitis,[1],11%
same,Most frequent adverse events: Vomiting,[1],29%
same,Most frequent adverse events: dizziness,[1],11%
same,decrease in CL,[2]; 80-year-old versus 30-year-old patient,40%
same,increase in CL,[2]; FFM of 68 kg compared with population median of 46.35 kg,66%
same,"IIV (CV%) on CL, base model",[2]; base two-compartment model,45%
same,"central volume (V2), base model",[2]; base two-compartment model,102 L
same,"intercompartmental clearance (Q), base model",[2]; base two-compartment model,35.1 L/h
same,"peripheral volume (V3), base model",[2]; base two-compartment model,338 L
same,"IIVCL, Bootstrap Median (95% PI)",[2]; [8],"22 (13, 28) %"
same,"Q, Bootstrap Median (95% PI)",[2]; [8],"28.83 (12.69, 60.68) L·h^−1"
same,"V2, Bootstrap Median (95% PI)",[2]; [8],"101.84 (65.42, 143.40) L"
same,"V3, Bootstrap Median (95% PI)",[2]; [8],"286.48 (104.63, 385.40) L"
same,"θAGE, Bootstrap Median (95% PI)",[2]; [8],−0.66 (−1.25 to −0.20)
same,"θCL, Bootstrap Median (95% PI)",[2]; [8],"3.98 (3.52, 4.45) L·h^−1"
same,"θFFM, Bootstrap Median (95% PI)",[2]; [8],"1.41 (0.92, 1.90)"
same,"σprop, Bootstrap Median (95% PI)",[2]; [8],"20 (16, 24) %"
same,"Tmax, median (min, max) estimated per patient","[2]; both, human, in vivo",1.7 h
same,Tmax,"[2]; both, human, in vivo, Tmax, median (min, max) estimated per patient",1.75 h
same,clearance,"[2]; both, human, plasma, oral",70 mL/min
same,CL variability explained by age,[2]; covariate age,21%
same,increase in CL with coadministration of dabrafenib,"[2]; covariate analysis, RSE = 46%, effect excluded after sensitivity analysis (adherence confounding)",40%
same,CL variability explained by FFM,[2]; covariate fat-free mass,66%
same,"IIVCL (inter-individual variability of CL, CV), Final Model Estimation (RSE %)",[2]; final model,23 (14) %
same,"Q (typical intercompartmental clearance), Final Model Estimation (RSE %)",[2]; final model,29.4 (30) L·h^−1
same,"V2 (typical volume of distribution, central), Final Model Estimation (RSE %)",[2]; final model,108 L and 108 (16) L
same,"V3 (peripheral volume of distribution), Final Model Estimation (RSE %)",[2]; final model,286 L and 286 (25) L
same,"θCL (typical clearance), Final Model Estimation (RSE %)",[2]; final model,3.96 L·h^−1 and 3.96 (6) L·h^−1
same,"σprop (proportional residual error, CV), Final Model Estimation (RSE %)",[2]; final model,20 (10) %
same,"θAGE (effect of age on CL), Final Model Estimation (RSE %)","[2]; final model, AGEmedian = 63 years",−0.69 (32)
same,"θFFM (effect of fat-free mass on CL), Final Model Estimation (RSE %)","[2]; final model, FFMmedian = 46.35 kg",1.41 (17)
same,ka (absorption rate constant),[3],0.913 h^−1 and 0.913 fixed h^−1
same,lipophilicity (in words),[4],lipophilic
same,Steady-state at day,[5]; Figure 1,15 days
same,excreted in the urine,[5],19%
same,terminal half-life,[5],around 127 h
same,time at which maximum concentration is reached after administration,[5],approximately 1.5 h
same,excreted in the urine,[5]; listed as Trametinib,≤ 19%
same,bioavailability,[5]; oral,72%
same,CL in a previous popPK model (first value named),[6],5.83 L/h
same,CL in a previous popPK model (second value named),[6],4.91 L/h
same,peripheral volume of distribution,[6]; ref Balakirouchenane et al. [38],417 L
same,central volume of distribution,[6]; ref Ouellet et al. [37],214 L
same,peripheral volume of distribution,[6]; ref Ouellet et al. [37],568 L
same,substrate of cytochrome P (CYP) enzymes,[7],not a substrate
